Data: US20220008445A1, “METHODS, COMPOSITIONS, AND KITS FOR TREATING OCULAR DISEASES” (ELOXX PHARMACEUTICALS, priority 2018, published 2022)

Tests used:
retina [1] = conditions: have been reported; cited from earlier work
retinal cultures = assay: Cytotoxicity in retinal cultures (staining profile); type: cell-based
Description: The cytotoxicity of NB30, NB54, NB84, NB122, NB124, and NB127 was evaluated in retinal cultures.

retina [2] = conditions: for tolerability in gross ophthalmological examination and ERG compared to gentamicin: in vivo
Description: Biocompatibility and pharmacokinetic/pharmacodynamic profiles were evaluated for the aminoglycosides NB30, NB54/Compound 37, NB84/ELX-03, NB122/ELX-01, NB124/ELX-02, NB127/ELX-04, NB118/ELX-05, and NB128/ELX-06 in patient-derived cell lines and rodent animal models.
NB122 was well-tolerated compared to gentamicin in gross ophthalmological examination and ERG when administered by intravitreal injection.

[3] = tested on: USH1F nonsense mutations R3X and R245X; assay: Cell-Free Read-through Assay; type: biochemical; conditions: FIG. 5A-B
Description: Cell-Free Read-through Assay. NB84 and NB127 were evaluated for their ability to induce read-through of the USH1F nonsense mutations R3X and R245X in a cell-free assay.

USH1 nonsense mutations = assay: In vitro cell-based read-through assay in HEK293 cells; conditions: greater at higher concentrations, FIG. 6A-B
Description: In Vitro Cell-Based Assay. NB84 and NB127 were next tested in an in vitro assay using HEK293 cells to determine if similar read-through activity could be achieved in a cellular environment.

USH2A mutation R626X = assay: Plasmid-based dual-luciferase read-through assay in HeLa cells, USH2A; type: cell-based; conditions: for read-through of the USH2A mutation (in words): FIG. 7, FIG. 9; for dose-dependence of read-through induction, USH2A: FIG. 10
Description: (§1) An in vitro assay was then performed to determine if the same dose-dependent suppression could be achieved using other aminoglycosides. This in vitro assay utilized a plasmid-based, dual-luciferase approach. Short sequences that include Usher syndrome nonsense mutations were cloned into the linker region between Renilla and Firefly luciferase reporters, and plasmids were transiently transfected into HeLa cells to evaluate compound read-through. This model permits an early assessment of read-through potential against disease-specific mutations. Read-through activity was evaluated using USH2A and USH1F mutations.
(§2) NB122, NB124, NB84, NB127, NB118, NB128, NB124-MeS, and NB157 were evaluated for their ability to induce read-through on the USH2A mutation R626X and the USH1F PCDH15 mutation R3X.

[4] = tested on: USH1F PCDH15 mutation R3X; assay: Plasmid-based dual-luciferase read-through assay in HeLa cells, USH1F; type: cell-based; conditions: for read-through of the USH1F mutation (in words): FIG. 8, FIG. 9; for dose-dependence of read-through induction, USH1F: FIG. 11
Description: as §1, §2

[5] = tested on: R213X nonsense mutation in human TP53; assay: Protein Based Read-through Assay in DMS114 cells; type: cell-based; conditions: Western blot and immunofluorescence
Description: Protein Based Read-through Assay. NB122, NB124, NB84, NB118, and NB128 were evaluated for their protein-based read-through potential in DMS114 cells, which harbor a native R213X nonsense mutation in human TP53 as depicted in the scheme shown in FIG. 12. […] A high-throughput immunofluorescence assay measuring p53 localized at the nucleus is shown in FIG. 15 with dose-dependence studies for NB84. Lastly, FIG. 16 provides full dose response curves for NB122, NB124, NB84, NB118, and NB128 with the error bars representing a standard deviation (SD).

[6] = tested on: USH1C nonsense mutation R155X; assay: Usher protein expression, USH1C nonsense mutation; type: cell-based; conditions: FIG. 17
Description: The ability of these compounds to induce protein expression of nonsense mutations associated with Usher syndrome was evaluated using USH1C nonsense mutations.

[7] = tested on: nonsense mutation R262X in the Oca2 gene; assay: Read-through after intravitreal injection in albino mice (melanin production); type: in vivo, SJL/J mice; conditions: for in vivo read-through as compared to gentamicin: injection to the posterior segment (back of eye); for melanin production in the eye: intravitreal injection, FIGS. 20-21
Description: Read-through activity following intravitreal injection of aminoglycosides was evaluated in animal models.
Albino mice (SJL/J mice) harbor the nonsense mutation R262X in the Oca2 gene resulting in an absence of melanin production in melanocytes. This model provides an initial evaluation of compound availability to the back of the eye when administered by intravitreal injection—higher concentrations of melanin correspond to greater read-through activity.
NB122, NB124, NB124-MeS, NB84, NB118, NB127, NB128, and NB157 were evaluated for read-through activity following intravitreal injection into SJL/J mice. FIGS. 20-21 show intravitreal read-through for each compound relative to gentamicin.

[8] = tested on: healthy New Zealand white rabbits; assay: Single-dose intravitreal tolerability, ERG and histology; type: in vivo
Description: Biocompatibility and pharmacokinetic/pharmacodynamic profiles were then evaluated for intravitreal injection of NB118 versus gentamicin. Single-dose tolerability was screened in healthy New Zealand white rabbits and evaluated based on ERG and histology. Dark-adapted oscillatory potential and photopic b-wave amplitudes were measured pre- and nine-days post a single 300 μg or 600 μg injection of aminoglycoside as shown in FIG. 2.
Results were confirmed by a veterinary pathologist.

[9] = Intravitreal pharmacokinetic profile, retina exposure; type: in vivo, Dutch-Belted rabbits; conditions: 100 μg intravitreal
Description: Pharmacokinetic profiles of NB124 were evaluated using healthy Dutch-Belted rabbits. Rabbits were injected with 100 μg of NB124 and followed for 192 hours. […] Overall, the results support a favorable therapeutic index for intravitreal administration of any of NB124.

[10] = intravitreal, human; cited from earlier work
[11] = nine days after single 300 μg or 600 μg intravitreal injection

Row | Compound | tolerability in gross ophthalmological examination and ERG compared to gentamicin (retina [2]) | read-through of the USH2A mutation (in words) (USH2A mutation R626X) | dose-dependence of read-through induction, USH2A (USH2A mutation R626X) | read-through of the USH1F mutation (in words) [4] | dose-dependence of read-through induction, USH1F [4] | nonsense mutation read-through as measured by protein expression (full length p53) [5] | protein expression versus gentamicin and vehicle control [6] | in vivo read-through as compared to gentamicin [7] | melanin production in the eye [7] | also measured
1 | CN[C@@H]1[C@@H](O)[C@@H](O[C@@H]2[C@@H](O)[C@H](O[C@H]3O[C@H]([C@@H](C)O)[C@@H](O)[C@H](O)[C@H]3N)[C@@H](N)C[C@H]2N)OC[C@]1(C)O [Compound G418, G418] | – | – | – | – | – | – | – | – | – | reported retinal toxicities (retina [1]): dose-limiting retinal toxicities
2 | NCC[C@H](O)C(=O)N[C@@H]1CC(N)[C@@H](O[C@H]2OC(CO)[C@@H](O)[C@H](O)C2N)[C@H](O[C@@H]2O[C@H](CN)[C@H](O)C2O)C1O (stereo partly shown) [NB54] | – | – | – | – | – | – | – | – | – | staining profile versus untreated retinal cultures (retinal cultures): did not significantly differ
3 | C[C@@H](O)C1O[C@H](O[C@@H]2C(N)C[C@@H](NC(=O)[C@@H](O)CCN)[C@@H](O)C2O[C@@H]2O[C@H](CN)[C@H](O)C2O)[C@@H](N)C(O)[C@@H]1O (stereo partly shown) [NB84] | well-tolerated | significant read-through | dose-dependence | significant read-through | dose-dependence | dose-dependent | increased protein expression | significant read-through | dose-dependent increase | in vivo ocular tolerance, intravitreal doses (retina [2]): up to 600 μg/mL; read-through as compared to G418 and gentamicin [3]: significant read-through; read-through in cells (USH1 nonsense mutations): significant read-through
4 | CC(N)C1OC(OC2C(O)C(N)CC(N)C2OC2OC(CO)C(O)C(O)C2N)C(O)C1O (stereo not shown) [NB118] | well-tolerated | significant read-through | dose-dependence | significant read-through | dose-dependence | dose-dependent | – | significant read-through | dose-dependent increase | anatomic changes in retina, H&E stained sections ([8]; rabbit, in vivo): did not produce adverse anatomic changes; impact on ERG amplitudes or implicit times ([8]; rabbit, in vivo): minimal to no impact; in vivo ocular tolerance, intravitreal doses (retina [2]): up to 600 μg/mL
5 | CC(N)C1OC(OC2C(O)C(NC(=O)C(O)CCN)CC(N)C2OC2OC(CO)C(O)C(O)C2N)C(O)C1O (stereo not shown) [NB122] | well-tolerated | – | dose-dependence | – | dose-dependence | dose-dependent | increased protein expression | significant read-through | dose-dependent increase | in vivo ocular tolerance, intravitreal doses (retina [2]): up to 600 μg/mL; R3X read-through rate ([4]; R3X): 2.7%; increase over native read-through ([4]; R3X): 2.5 fold
6 | CC(N)C1OC(OC2C(O)C(NS(C)(=O)=O)CC(N)C2OC2OC(C(C)O)C(O)C(O)C2N)C(O)C1O (stereo not shown) [NB124-MeS] | well-tolerated | significant read-through | – | significant read-through | – | – | – | significant read-through | dose-dependent increase | –
7 | C[C@H](N)[C@H]1O[C@@H](O[C@@H]2[C@@H](O)[C@H](N)C[C@H](N)[C@H]2O[C@H]2O[C@H]([C@@H](C)O)[C@@H](O)[C@H](O)[C@H]2N)[C@H](O)[C@@H]1O [NB124] | well-tolerated | – | dose-dependence | – | dose-dependence | dose-dependent | increased protein expression | significant read-through | dose-dependent increase | time for which retina exposure covers the compound's IC50 [9]: over 48 hours; time of peak retina exposure ([9]; followed for 192 hours): 3 h
8 | CC(N)C1OC(OC2C(O)C(NC(=O)C(O)CCN)CC(N)C2OC2OC(C(C)O)C(O)C(O)C2N)C(O)C1O (stereo not shown) [NB127] | well-tolerated | significant read-through | – | significant read-through | – | – | increased protein expression | significant read-through | dose-dependent increase | read-through as compared to G418 and gentamicin [3]: significant read-through; read-through in cells (USH1 nonsense mutations): significant read-through
9 | CC(N)C1OC(OC2C(O)C(NC(=O)C(O)CCN)CC(N)C2OC2OC(C(C)O)C(O)C(O)C2N)C(O)C1O (stereo not shown) [NB128] | well-tolerated | significant read-through | dose-dependence | significant read-through | dose-dependence | dose-dependent | – | significant read-through | dose-dependent increase | –
10 | CCCNC1CC(N)C(OC2OC(C(C)O)C(O)C(O)C2N)C(OC2OC(CN)C(O)C2O)C1O (stereo not shown) [NB147] | well-tolerated | – | – | – | – | – | – | significant read-through | – | –
11 | C[C@H](N)[C@H]1O[C@@H](O[C@@H]2C(O)[C@H](N)CC(N)[C@H]2O[C@H]2OC([C@H](O)CO)[C@@H](O)[C@H](O)C2N)C(O)[C@H]1O (stereo partly shown) [NB157] | – | significant read-through | – | significant read-through | – | – | – | – | dose-dependent increase | –
12 | gentamicin [reference compound] | – | – | – | – | – | – | – | – | – | dark-adapted oscillatory potential peaks (ERG) [8, 11]: ablation; photopic b-wave potentials (ERG) [8, 11]: moderate reduction; melanin ([7]; 0.2 μg intravitreal, t-test vs. vehicle control): increases melanin; dose at which toxicity observed ([7]; intravitreal, pilot study FIG. 19): 0.5 µg; half-life [10]: 40 to 60 h; reported retinal toxicities (retina [1]): dose-limiting retinal toxicities
